Measurements from ChEMBL document CHEMBL6115029, “Discovery of Daraxonrasib (RMC-6236), a Potent and Orally Bioavailable RAS(ON) Multi-selective, Noncovalent Tri-complex Inhibitor for the Treatment of Patients with Multiple RAS-Addicted Cancers” (J Med Chem, 2025).
Converted amounts (≈) assume the structure as drawn.

Tests used:
[1] = target: Peptidyl-prolyl cis-trans isomerase A (Homo sapiens, UniProt P62937); assay: Binding affinity to Avi-tagged Cyclophilin A (unknown origin) assessed as dissociation constant by SPR analysis
Sequence of Peptidyl-prolyl cis-trans isomerase A (P62937 whole entry, the tested form may be a part): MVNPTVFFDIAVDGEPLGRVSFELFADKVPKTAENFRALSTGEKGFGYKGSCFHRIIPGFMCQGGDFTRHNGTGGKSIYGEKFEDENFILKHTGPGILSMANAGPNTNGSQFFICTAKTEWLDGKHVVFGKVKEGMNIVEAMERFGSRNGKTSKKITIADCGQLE

[2] = Inhibition of 6His-tagged KRAS G12V mutant(1 to 169 residues)/GST-tagged GMPPNP-bound BRAF RBD (155 to 229 reisudes)/Cyclophilin A (unknown origin) tri-complex protein-protein interaction incubated for 3 hrs by TR-FERT based disruption assay; design: species or system Homo sapiens
[3] = Inhibition of 6His-tagged KRAS G12D mutant(1 to 169 residues)/GST-tagged GMPPNP-bound BRAF RBD (155 to 229 reisudes)/Cyclophilin A (unknown origin) tri-complex protein-protein interaction incubated for 3 hrs by TR-FERT based disruption assay; design: species or system Homo sapiens
[4] = Inhibition of 6His-tagged KRAS G12C mutant(1 to 169 residues)/GST-tagged GMPPNP-bound BRAF RBD (155 to 229 reisudes)/Cyclophilin A (unknown origin) tri-complex protein-protein interaction incubated for 3 hrs by TR-FERT based disruption assay; design: species or system Homo sapiens
[5] = Inhibition of 6His-tagged wildtype KRAS (1 to 169 residues)/GST-tagged GMPPNP-bound BRAF RBD (155 to 229 reisudes)/Cyclophilin A (unknown origin) tri-complex protein-protein interaction incubated for 3 hrs by TR-FERT based disruption assay; design: species or system Homo sapiens
CAPAN-1 = assay: Cytotoxicity against human CAPAN-1 cells harboring KRAS G12V mutant cultured as 2D cells assessed as reduction in cell viability incubated for 120 hrs by CellTiter-Glo luminescence assay; format: functional, cell-based; conditions: CAPAN-1, 120 h
ASPC1 = assay: Cytotoxicity against human ASPC1 cells harboring KRAS G12D mutant cultured as 2D cells assessed as reduction in cell viability incubated for 120 hrs by CellTiter-Glo luminescence assay; format: functional, cell-based; conditions: ASPC1, 120 h
NCI-H358 = assay: Cytotoxicity against human NCI-H358 cells harboring KRAS G12C mutant cultured as 2D cells assessed as reduction in cell viability incubated for 120 hrs by CellTiter-Glo luminescence assay; format: functional, cell-based; conditions: NCI-H358, 120 h
NCI-H1975 = assay: Cytotoxicity against human NCI-H1975 cells harboring wildtype KRAS cultured as 2D cells assessed as reduction in cell viability incubated for 120 hrs by CellTiter-Glo luminescence assay; format: functional, cell-based; conditions: NCI-H1975, 120 h
[6] = Inhibition of ERK1/2 phosphorylation in human CAPAN-1 cells harboring KRAS G12V mutant incubated for 4 hrs by AlphaLISA assay; format: cell-based; conditions: CAPAN-1, 4 h
[7] = Inhibition of ERK1/2 phosphorylation in human NCI-H358 cells harboring KRAS G12C mutant incubated for 4 hrs by AlphaLISA assay; format: cell-based; conditions: NCI-H358, 4 h
[8] = Inhibition of ERK1/2 phosphorylation in human ASPC1 cells harboring KRAS G12D mutant incubated for 4 hrs by AlphaLISA assay; format: cell-based; conditions: ASPC1, 4 h
[9] = Metabolic stability in mouse liver microsomes assessed as half-life at 2 uM measured upto 60 mins in presence of NADPH by LC-MS/MS analysis; format: ADME, Microsome
A-375 = assay: Cytotoxicity against human A-375 cells assessed as reduction in cell viability incubated for 120 hrs by CellTiter-Glo luminescence assay; format: functional, cell-based; conditions: A-375, 120 h
[10] = Kinetic solubility of compound in PBS at pH 7.4 measured after 5 hrs by UV analysis; format: physicochemical; conditions: read-out: Kinetic_solubility
[11] = Apparent permeability across apical to basolateral side in human Caco-2 cells at 5 uM incubated for 2 hrs by LC-MS/MS analysis; format: ADME, cell-based
[12] = Efflux ratio of apparent permeability in human Caco-2 cells at 5 uM incubated for 2 hrs by LC-MS/MS analysis; format: ADME, cell-based
[13] = Lipophilicity, logD of compound at pH 7.4 by Agilent 1290 II uPLC analysis; format: physicochemical; conditions: buffer
[14] = Clearance in female BALB/c mouse at 1 mg/kg, iv measured after 24 hrs by LC-MS/MS analysis; format: ADME, organism-based; conditions: in vivo
[15] = Half-life in female BALB/c mouse at 1 mg/kg, iv measured after 24 hrs by LC-MS/MS analysis; format: ADME, organism-based; conditions: in vivo
[16] = Oral bioavailability in female BALB/c mouse at 10 mg/kg measured after 24 hrs by LC-MS/MS analysis; format: ADME, organism-based; conditions: in vivo
[17] = Clearance in female BALB/c mouse blood at 1 mg/kg, iv measured after 24 hrs by LC-MS/MS analysis; format: ADME, organism-based
[18] = Clearance in female BALB/c mouse plasma at 1 mg/kg, iv measured after 24 hrs by LC-MS/MS analysis; format: ADME, organism-based
[19] = Oral bioavailability in female BALB/c mouse blood at 10 mg/kg measured after 24 hrs by LC-MS/MS analysis; format: ADME, organism-based
[20] = Oral bioavailability in female BALB/c mouse plasma at 10 mg/kg measured after 24 hrs by LC-MS/MS analysis; format: ADME, organism-based

CCn1c(-c2cc(N3CCN(C)CC3)cnc2[C@H](C)OC)c2c3cc(ccc31)-c1csc(n1)C[C@H](NC(=O)[C@H]1[C@@H]3COC[C@@H]31)C(=O)N1CCC[C@H](N1)C(=O)OCC(C)(C)C2
Kd [1]: 60 nM
IC50 [2]: 40 nM
IC50 [3]: 151 nM
IC50 [4]: 29 nM
IC50 [5]: 69 nM
EC50 (CAPAN-1): 1.1 nM
EC50 (ASPC1): 2.1 nM
EC50 (NCI-H358): 0.4 nM
EC50 (NCI-H1975): 0.4 nM
EC50 [6]: 0.3 nM
EC50 [7]: 1.7 nM
EC50 [8]: 2.4 nM
half-life at 2 µM [9]: > 2 h
EC50 (A-375): 9450 nM
solubility kinetic at 5 h [10]: 23 µM (≈ 19.3 µg/mL)
Papp A→B at 2 h, 5 µM [11]: 0.3 ×10⁻⁶ cm/s
efflux ratio at 2 h, 5 µM [12]: 43
logD [13]: 4.1

CCn1c(-c2cccnc2[C@H](C)OC)c2c3cc(ccc31)-c1csc(n1)C[C@H](NC(=O)C1CC1)C(=O)N1CCC[C@H](N1)C(=O)OCC(C)(C)C2
Kd [1]: 18700 nM
IC50 [2]: 301 nM
IC50 [3]: 1950 nM
IC50 [4]: 208 nM
IC50 [5]: 615 nM
EC50 (CAPAN-1): 485 nM
EC50 (ASPC1): 852 nM
EC50 (NCI-H358): 403 nM
EC50 (NCI-H1975): 188 nM
EC50 [6]: 147 nM
EC50 [7]: 166 nM
EC50 [8]: 3410 nM
half-life at 2 µM [9]: 1.57 h
EC50 (A-375): 5950 nM
solubility kinetic at 5 h [10]: 15 µM (≈ 10.5 µg/mL)
Papp A→B at 2 h, 5 µM [11]: 4.3 ×10⁻⁶ cm/s
efflux ratio at 2 h, 5 µM [12]: 1.6
clearance [14]: 5 mL/min/kg
half-life [15]: 2 h
bioavailability [16]: 53%
logD [13]: 4.8

CCn1c(-c2cccnc2[C@H](C)OC)c2c3cc(ccc31)-c1csc(n1)C[C@H](NC(=O)[C@H](C(C)C)N(C)C(=O)OC)C(=O)N1CCC[C@H](N1)C(=O)OCC(C)(C)C2
Kd [1]: 184 nM
IC50 [3]: 3070 nM
IC50 [4]: 302 nM
IC50 [5]: 742 nM
EC50 (CAPAN-1): 28 nM
IC50 (ASPC1): 400 nM
EC50 (NCI-H358): 35 nM
EC50 [6]: 8 nM
EC50 [7]: 63 nM
EC50 [8]: 326 nM
half-life at 2 µM [9]: 0.183 h
EC50 (A-375): 5420 nM
solubility kinetic at 5 h [10]: < 2 µM
Papp A→B at 2 h, 5 µM [11]: 0.08 ×10⁻⁶ cm/s
efflux ratio at 2 h, 5 µM [12]: 7.4

CCn1c(-c2cccnc2[C@H](C)OC)c2c3cc(ccc31)-c1csc(n1)C[C@H](NC(=O)[C@H](C(C)C)N(C)C(=O)N1CCC1)C(=O)N1CCC[C@H](N1)C(=O)OCC(C)(C)C2
Kd [1]: 293 nM
IC50 [3]: 491 nM
IC50 [4]: 35 nM
IC50 [5]: 107 nM
EC50 (CAPAN-1): 11 nM
IC50 (ASPC1): 37 nM
EC50 (NCI-H358): 7 nM
EC50 (NCI-H1975): 28 nM
EC50 [6]: 2 nM
EC50 [7]: 1 nM
EC50 [8]: 22 nM
half-life at 2 µM [9]: 0.15 h
EC50 (A-375): 4400 nM
solubility kinetic at 5 h [10]: < 2 µM
Papp A→B at 2 h, 5 µM [11]: 0.09 ×10⁻⁶ cm/s
efflux ratio at 2 h, 5 µM [12]: 13.6
clearance [14]: 65 mL/min/kg
half-life [15]: 0.8 h
bioavailability [16]: 2.2%

CCn1c(-c2cc(N3CCN(C4COC4)CC3)cnc2[C@H](C)OC)c2c3cc(ccc31)-c1csc(n1)C[C@H](NC(=O)[C@H]1C[C@@H]1C)C(=O)N1CCC[C@H](N1)C(=O)OCC(C)(C)C2
Kd [1]: 77 nM
IC50 [2]: 55 nM
IC50 [3]: 249 nM
IC50 [4]: 40 nM
IC50 [5]: 103 nM
EC50 (CAPAN-1): 1.8 nM
EC50 (ASPC1): 4.1 nM
EC50 (NCI-H358): 0.8 nM
EC50 (NCI-H1975): 0.9 nM
EC50 [6]: 0.7 nM
EC50 [7]: 2.9 nM
EC50 [8]: 4.2 nM
half-life at 2 µM [9]: > 2 h
EC50 (A-375): > 10000 nM
solubility kinetic at 5 h [10]: 56 µM (≈ 47.8 µg/mL)
Papp A→B at 2 h, 5 µM [11]: 0.6 ×10⁻⁶ cm/s
efflux ratio at 2 h, 5 µM [12]: 12
clearance [17]: 6.67 mL/min/kg
clearance [18]: 51.7 mL/min/kg
bioavailability [19]: 49%
bioavailability [20]: 27%

CCn1c(-c2cc(N3CCN(C4CC4)CC3)cnc2[C@H](C)OC)c2c3cc(ccc31)-c1csc(n1)C[C@H](NC(=O)[C@H]1C[C@@H]1C)C(=O)N1CCC[C@H](N1)C(=O)OCC(C)(C)C2
Kd [1]: 396 nM
IC50 [2]: 64 nM
IC50 [3]: 277 nM
IC50 [4]: 50 nM
IC50 [5]: 117 nM
EC50 (CAPAN-1): 8.1 nM
EC50 (ASPC1): 13.9 nM
EC50 (NCI-H358): 3.4 nM
EC50 [6]: 1.3 nM
EC50 [7]: 4.9 nM
EC50 [8]: 15.2 nM
EC50 (A-375): > 10000 nM
solubility kinetic at 5 h [10]: 5 µM (≈ 4.19 µg/mL)
Papp A→B at 2 h, 5 µM [11]: 2.2 ×10⁻⁶ cm/s
logD [13]: 5.3
